Measured values from US20140288013A1, “METHODS AND COMPOSITIONS FOR THE MANAGEMENT OF CANCER USING 2-DG AND AN IGF-IR INHIBITOR” (priority 2011, published 2014).
Where two headings read alike, the source gives them in different places.

How the values were obtained:
[1] = test system: A549; assay: MTS assay, IC50 in LKB1-null NSCLC cell line A549; assay type: cell-based; settings: Homo sapiens
Source text: (§1) 2000 cells were seed in each well of a 96-well plate, and exposed to BMS754807 or 2-DG at indicated concentration for 48 hrs.
(§2) Analysis focused on NSCLC cell lines with LKB1 inactivation mutation. A549 and H460 both contain a Q37 to nonsense mutation, and H157 contains exon 2 and 3 deletion. All these mutations results in the loss of LKB1 protein function. MTS assay was used to measure the IC50 of BMS754807 and 2-DG in these cells (FIG. 1).

[2] = test system: H157; assay: Combination index analysis of cell proliferation, H157; assay type: cell-based; settings: Homo sapiens
[3] = test system: AKT; settings: through IGF1R and PI3K; cited from earlier work
[4] = test system: H460; assay: Combination index analysis of cell proliferation, H460; assay type: cell-based; settings: Homo sapiens
[5] = biological target: IGF-I and IGF-binding protein 3 (IGFBP3) (Homo sapiens, UniProt P05019+P17936); settings: 2-DG treatments; cited from earlier work
[6] = test system: H157; assay: MTS assay, IC50 in LKB1-null NSCLC cell line H157; assay type: cell-based; settings: Homo sapiens
Source text: as §1, §2

[7] = test system: H460; assay: MTS assay, IC50 in LKB1-null NSCLC cell line H460; assay type: cell-based; settings: Homo sapiens
Source text: as §1, §2

[8] = test system: AKT; assay: 2-DG induced AKT phosphorylation in LKB1-null NSCLC cell lines; assay type: cell-based; settings: for Akt phosphorylation induced by 2-DG: FIG. 2, cell line not named at the place; for 2-DG induced AKT phosphorylation: pre-incubated with 10 μM BMS754807 for 30 minutes, then 25 mM 2-DG
Protocol: Whether 2-DG induced AKT phosphorylation can be blocked by BMS754807 was determined. LKB1-null NSCLC cell lines was pre-incubated with 10 μM of BMS754807 for 30 minutes, and then stimulated with 25 mM 2-DG to induce phosphorylation. BMS754807 blocked 2-DG induced IGF1R and AKT phosphorylation in H460, and H157 cells.

[9] = test system: IGF1R; assay: 2-DG induced IGF1R phosphorylation in LKB1-null NSCLC cell lines; assay type: cell-based

Chain of IGF-I and IGF-binding protein 3 (IGFBP3) (P17936 28-291, species assumed): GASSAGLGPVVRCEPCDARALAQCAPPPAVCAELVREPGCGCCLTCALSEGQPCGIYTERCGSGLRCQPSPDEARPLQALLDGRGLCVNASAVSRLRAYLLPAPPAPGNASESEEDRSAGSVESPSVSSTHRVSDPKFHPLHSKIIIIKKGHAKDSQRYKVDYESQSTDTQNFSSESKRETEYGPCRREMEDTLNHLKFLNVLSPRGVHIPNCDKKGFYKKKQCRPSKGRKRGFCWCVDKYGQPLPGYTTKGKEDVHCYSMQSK
Chain of IGF-I and IGF-binding protein 3 (IGFBP3) (P05019 49-118 limits assumed, species assumed): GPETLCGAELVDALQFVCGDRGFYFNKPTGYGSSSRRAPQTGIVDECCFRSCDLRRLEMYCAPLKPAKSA

Compound `O=CC[C@@H](O)[C@H](O)[C@H](O)CO` [2-DG, 2-Deoxyglucose] has an IC50 ([1]; A549, MTS assay, 48 hrs, read-out: IC50) of 15.7 mM, a viability at 2500 µM ([2]; NCI-H157, 2-DG 2.5 mM, read-out: FA2-DG (fraction growth inhibition by 2-DG alone)) of 93% and a viability at 5000 µM ([2]; NCI-H157, 2-DG 5.0 mM, read-out: FA2-DG (fraction growth inhibition by 2-DG alone)) of 80%. For the same compound, the viability at 10000 µM ([2]; NCI-H157, 2-DG 10.0 mM, read-out: FA2-DG (fraction growth inhibition by 2-DG alone)) was 69%, the “activation of prosurvival oncoprotein AKT” value [3] was “activates” and the viability at 2500 µM ([4]; NCI-H460, 2-DG 2.5 mM, read-out: FA2-DG (fraction growth inhibition by 2-DG alone)) was 95%. For the same compound, the viability at 5000 µM ([4]; NCI-H460, 2-DG 5.0 mM, read-out: FA2-DG (fraction growth inhibition by 2-DG alone)) was 81%, the viability at 10000 µM ([4]; NCI-H460, 2-DG 10.0 mM, read-out: FA2-DG (fraction growth inhibition by 2-DG alone)) was 71% and the “binding between IGF-I and IGFBP3” value [5] was “disrupted”. It also gave an IC50 ([6]; NCI-H157, H157, MTS assay, 48 hrs, read-out: IC50) of 21.8 mM and an IC50 ([7]; NCI-H460, H460, MTS assay, 48 hrs, read-out: IC50) of 14.1 mM.
With `CC1(C(=O)Nc2ccc(F)nc2)CCCN1c1nc(Nc2cc(C3CC3)[nH]n2)c2cccn2n1` (stereo not shown) [BMS-754807, 1-(4-((5-cyclopropyl-1H-pyrazol-3-yl)amino)pyrrolo[2,1-f][1,2,4]triazin-2-yl)-N-(6-fluoropyridin-3-yl)-2-methylpyrrolidine-2-carboxamide] the IC50 ([1]; A549, 48 h) was 0.0166 mM, the “Akt phosphorylation induced by 2-DG” value [8] was “block” and the “Akt phosphorylation induced by 2-DG” value ([8]; listed as BMS754807) was “blocked”. For the same compound, the “2-DG induced AKT phosphorylation” value ([8]; H157 cells) was “blocked”, the “2-DG induced AKT phosphorylation” value ([8]; H460 cells) was “blocked” and the viability at 5 µM ([2]; NCI-H157, BMS-754807 5.0 uM, read-out: FABMS-754807 (fraction growth inhibition by BMS-754807 alone)) was 99%. The viability at 10 µM ([2]; NCI-H157, BMS-754807 10.0 uM, read-out: FABMS-754807 (fraction growth inhibition by BMS-754807 alone)) was 82%, the “2-DG induced IGF1R phosphorylation” value ([9]; FIG. 2, cell line not named at the place) was “blocked” and the “2-DG induced IGF1R phosphorylation” value ([9]; H157 cells, pre-incubated with 10 μM BMS754807 for 30 minutes, then 25 mM 2-DG) was “blocked”. The “2-DG induced IGF1R phosphorylation” value ([9]; H460 cells, pre-incubated with 10 μM BMS754807 for 30 minutes, then 25 mM 2-DG) was “blocked”, the viability at 5 µM ([4]; NCI-H460, BMS-754807 5.0 uM, read-out: FABMS-754807 (fraction growth inhibition by BMS-754807 alone)) was 80% and the viability at 10 µM ([4]; NCI-H460, BMS-754807 10.0 uM, read-out: FABMS-754807 (fraction growth inhibition by BMS-754807 alone)) was 69%. For the same compound, the IC50 ([6]; NCI-H157, 48 h) was 0.0108 mM and the IC50 ([7]; NCI-H460, 48 h) was 0.00325 mM.
